Results: ChEMBL document CHEMBL4706534, “1,2,3-Triazole-containing hybrids with potential antibacterial activity against methicillin-resistant Staphylococcus aureus (MRSA)” (Eur J Med Chem, 2020)
pIC50: −log10 of the molar value. ≈ marks a conversion by molar mass, not a printed value.

Experiments:
Staphylococcus aureus [1] = experiment: Antibacterial activity against Methicillin-resistant Staphylococcus aureus ATCC 33591; assay type: functional, organism-based
Staphylococcus aureus [2] = experiment: Antibiofilm activity against methicillin-resistant Staphylococcus aureus ATCC BAA-44 incubated for 24 hrs by crystal violet-staining based assay; assay type: functional, organism-based; settings: ATCC BAA-44, 24 h
Staphylococcus aureus [3] = experiment: Potentiation of oxacillin-induced antibacterial activity against methicillin-resistant Staphylococcus aureus ATCC BAA-44 assessed as reduction in oxacillin MIC preincubated for 30 mins followed by oxacillin addition and measured after 16 hrs by broth microdilution method; assay type: functional; settings: time 16.5 hrs
Staphylococcus aureus [4] = experiment: Antibacterial activity against methicillin-sensitive Staphylococcus aureus ATCC 29213 by broth microdilution method; assay type: functional
Staphylococcus aureus [5] = experiment: Antibacterial activity against methicillin-resistant Staphylococcus aureus ATCC 33591 by broth microdilution method; assay type: functional

CN[C@H](CC(C)C)C(=O)N[C@@H]1Cc2ccc(c(Cl)c2)Oc2cc3cc(c2O[C@@H]2O[C@H](CO)[C@@H](O)[C@H](O)[C@H]2O[C@H]2C[C@](C)(N)[C@H](O)[C@H](C)O2)Oc2ccc(cc2Cl)[C@@H](O)[C@@H]2NC(=O)[C@H](NC(=O)[C@@H]3NC(=O)[C@H](CC(=O)O)NC1=O)c1ccc(O)c(c1)-c1c(O)cc(O)cc1[C@H](C(=O)NCCn1cc(CNC(=O)[C@@H]3NC(=O)[C@H]4NC(=O)[C@H](NC(=O)[C@@H]5NC(=O)[C@H](CC(=O)O)NC(=O)[C@H](NC(=O)[C@@H](CC(C)C)NC)Cc6ccc(c(Cl)c6)Oc6cc5cc(c6O[C@@H]5O[C@H](CO)[C@@H](O)[C@H](O)[C@H]5O[C@H]5C[C@](C)(N)[C@H](O)[C@H](C)O5)Oc5ccc(cc5Cl)[C@H]4O)c4ccc(O)c(c4)-c4c(O)cc(O)cc43)nn1)NC2=O
MIC (Staphylococcus aureus [1]): 1.3 µg/mL (≈ 0.437 µM)

CN[C@H](CC(C)C)C(=O)N[C@@H]1Cc2ccc(c(Cl)c2)Oc2cc3cc(c2O[C@@H]2O[C@H](CO)[C@@H](O)[C@H](O)[C@H]2O[C@H]2C[C@](C)(N)[C@H](O)[C@H](C)O2)Oc2ccc(cc2Cl)[C@@H](O)[C@@H]2NC(=O)[C@H](NC(=O)[C@@H]3NC(=O)[C@H](CC(=O)O)NC1=O)c1ccc(O)c(c1)-c1c(O)cc(O)cc1[C@H](C(=O)NCCCCCc1cn(CCCCCNC(=O)[C@@H]3NC(=O)[C@H]4NC(=O)[C@H](NC(=O)[C@@H]5NC(=O)[C@H](CC(=O)O)NC(=O)[C@H](NC(=O)[C@@H](CC(C)C)NC)Cc6ccc(c(Cl)c6)Oc6cc5cc(c6O[C@@H]5O[C@H](CO)[C@@H](O)[C@H](O)[C@H]5O[C@H]5C[C@](C)(N)[C@H](O)[C@H](C)O5)Oc5ccc(cc5Cl)[C@H]4O)c4ccc(O)c(c4)-c4c(O)cc(O)cc43)nn1)NC2=O
MIC (Staphylococcus aureus [1]): 1.3 µg/mL (≈ 0.423 µM)

C/C(=C/c1ccccc1)Cn1cc(CCCCCc2nc(N)[nH]c2-c2ccc(C(C)C)cc2)nn1
pIC50 (Staphylococcus aureus [2]): 5.87
fold change (FC) (Staphylococcus aureus [3]): 2

CC(=O)N[C@H]1[C@H](O[C@@H]2c3ccc(c(Cl)c3)Oc3cc4cc(c3O)Oc3ccc(cc3Cl)C[C@H]3NC(=O)[C@H](n5cc(COc6ccccc6)nn5)c5ccc(O)c(c5)Oc5cc(O)cc(c5)[C@H](NC3=O)C(=O)N[C@H]4C(=O)N[C@H]3C(=O)N[C@@H]2C(=O)N[C@@H](C(=O)O)c2cc(O)cc(O)c2-c2cc3ccc2O)O[C@H](CO)[C@@H](O)[C@@H]1O
MIC (Staphylococcus aureus [4]): 0.5 µg/mL (≈ 0.32 µM)
MIC (Staphylococcus aureus [5]): 0.5 µg/mL (≈ 0.32 µM)

C/C(=C/CC1CCCCC1)Cn1cc(CCCCCc2nc(N)[nH]c2-c2ccccc2)nn1
pIC50 (Staphylococcus aureus [2]): 5.85
fold change (FC) (Staphylococcus aureus [3]): 2

CCCCCCCCc1cn([C@H]2C(=O)N[C@@H]3Cc4ccc(c(Cl)c4)Oc4cc5cc(c4O)Oc4ccc(cc4Cl)[C@@H](O[C@@H]4O[C@H](CO)[C@@H](O)[C@H](O)[C@H]4NC(C)=O)[C@@H]4NC(=O)[C@H](NC(=O)[C@@H]5NC(=O)[C@@H](NC3=O)c3cc(O)cc(c3)Oc3cc2ccc3O)c2ccc(O)c(c2)-c2c(O)cc(O)cc2[C@H](C(=O)O)NC4=O)nn1
MIC (Staphylococcus aureus [4]): 0.16 µg/mL (≈ 0.102 µM)
MIC (Staphylococcus aureus [5]): 0.16 µg/mL (≈ 0.102 µM)

CN[C@H](CC(C)C)C(=O)N[C@@H]1Cc2ccc(c(Cl)c2)Oc2cc3cc(c2O[C@@H]2O[C@H](CO)[C@@H](O)[C@H](O)[C@H]2O[C@H]2C[C@](C)(N)[C@H](O)[C@H](C)O2)Oc2ccc(cc2Cl)[C@@H](O)[C@@H]2NC(=O)[C@H](NC(=O)[C@@H]3NC(=O)[C@H](CC(=O)O)NC1=O)c1ccc(O)c(c1)-c1c(O)cc(O)cc1[C@H](C(=O)NCCCCCCn1cc(CCCNC(=O)[C@@H]3NC(=O)[C@H]4NC(=O)[C@H](NC(=O)[C@@H]5NC(=O)[C@H](CC(=O)O)NC(=O)[C@H](NC(=O)[C@@H](CC(C)C)NC)Cc6ccc(c(Cl)c6)Oc6cc5cc(c6O[C@@H]5O[C@H](CO)[C@@H](O)[C@H](O)[C@H]5O[C@H]5C[C@](C)(N)[C@H](O)[C@H](C)O5)Oc5ccc(cc5Cl)[C@H]4O)c4ccc(O)c(c4)-c4c(O)cc(O)cc43)nn1)NC2=O
MIC (Staphylococcus aureus [1]): 1.3 µg/mL (≈ 0.425 µM)

CN[C@H](CC(C)C)C(=O)N[C@@H]1Cc2ccc(c(Cl)c2)Oc2cc3cc(c2O[C@@H]2O[C@H](CO)[C@@H](O)[C@H](O)[C@H]2O[C@H]2C[C@](C)(N)[C@H](O)[C@H](C)O2)Oc2ccc(cc2Cl)[C@@H](O)[C@@H]2NC(=O)[C@H](NC(=O)[C@@H]3NC(=O)[C@H](CC(=O)O)NC1=O)c1ccc(O)c(c1)-c1c(O)cc(O)cc1[C@H](C(=O)NCCCn1cc(CNC(=O)[C@@H]3NC(=O)[C@H]4NC(=O)[C@H](NC(=O)[C@@H]5NC(=O)[C@H](CC(=O)O)NC(=O)[C@H](NC(=O)[C@@H](CC(C)C)NC)Cc6ccc(c(Cl)c6)Oc6cc5cc(c6O[C@@H]5O[C@H](CO)[C@@H](O)[C@H](O)[C@H]5O[C@H]5C[C@](C)(N)[C@H](O)[C@H](C)O5)Oc5ccc(cc5Cl)[C@H]4O)c4ccc(O)c(c4)-c4c(O)cc(O)cc43)nn1)NC2=O
MIC (Staphylococcus aureus [1]): 1.3 µg/mL (≈ 0.435 µM)

CCCc1ccc(/C=C(/C)Cn2cc(CCCCCc3nc(N)[nH]c3-c3ccccc3)nn2)cc1
pIC50 (Staphylococcus aureus [2]): 5.85
fold change (FC) (Staphylococcus aureus [3]): 2

CCCCCCCCCCCC/C=C(/C)Cn1cc(CCCCCc2nc(N)[nH]c2-c2ccccc2)nn1
pIC50 (Staphylococcus aureus [2]): 5.85
fold change (FC) (Staphylococcus aureus [3]): 2

CN[C@H](CC(C)C)C(=O)N[C@@H]1Cc2ccc(c(Cl)c2)Oc2cc3cc(c2O[C@@H]2O[C@H](CO)[C@@H](O)[C@H](O)[C@H]2O[C@H]2C[C@](C)(N)[C@H](O)[C@H](C)O2)Oc2ccc(cc2Cl)[C@@H](O)[C@@H]2NC(=O)[C@H](NC(=O)[C@@H]3NC(=O)[C@H](CC(=O)O)NC1=O)c1ccc(O)c(c1)-c1c(O)cc(O)cc1[C@H](C(=O)NCCCCCc1cn(CCCCNC(=O)[C@@H]3NC(=O)[C@H]4NC(=O)[C@H](NC(=O)[C@@H]5NC(=O)[C@H](CC(=O)O)NC(=O)[C@H](NC(=O)[C@@H](CC(C)C)NC)Cc6ccc(c(Cl)c6)Oc6cc5cc(c6O[C@@H]5O[C@H](CO)[C@@H](O)[C@H](O)[C@H]5O[C@H]5C[C@](C)(N)[C@H](O)[C@H](C)O5)Oc5ccc(cc5Cl)[C@H]4O)c4ccc(O)c(c4)-c4c(O)cc(O)cc43)nn1)NC2=O
MIC (Staphylococcus aureus [1]): 1.3 µg/mL (≈ 0.425 µM)

CC(=O)N[C@H]1[C@H](O[C@@H]2c3ccc(c(Cl)c3)Oc3cc4cc(c3O)Oc3ccc(cc3Cl)C[C@H]3NC(=O)[C@H](n5cc(COC[C@H]6O[C@@H]7OC(C)(C)O[C@@H]7[C@H]7OC(C)(C)O[C@H]76)nn5)c5ccc(O)c(c5)Oc5cc(O)cc(c5)[C@H](NC3=O)C(=O)N[C@H]4C(=O)N[C@H]3C(=O)N[C@@H]2C(=O)N[C@@H](C(=O)O)c2cc(O)cc(O)c2-c2cc3ccc2O)O[C@H](CO)[C@@H](O)[C@@H]1O
MIC (Staphylococcus aureus [4]): 0.5 µg/mL (≈ 0.29 µM)
MIC (Staphylococcus aureus [5]): 0.5 µg/mL (≈ 0.29 µM)

C/C(=C/c1ccccc1)Cn1cc(CCCCCc2nc(N)[nH]c2-c2ccc(-c3ccccc3)cc2)nn1
pIC50 (Staphylococcus aureus [2]): 5.87
fold change (FC) (Staphylococcus aureus [3]): 2

CCCCCCCCOCc1cn([C@H]2C(=O)N[C@@H]3Cc4ccc(c(Cl)c4)Oc4cc5cc(c4O)Oc4ccc(cc4Cl)[C@@H](O[C@@H]4O[C@H](CO)[C@@H](O)[C@H](O)[C@H]4NC(C)=O)[C@@H]4NC(=O)[C@H](NC(=O)[C@@H]5NC(=O)[C@@H](NC3=O)c3cc(O)cc(c3)Oc3cc2ccc3O)c2ccc(O)c(c2)-c2c(O)cc(O)cc2[C@H](C(=O)O)NC4=O)nn1
MIC (Staphylococcus aureus [4]): 0.5 µg/mL (≈ 0.313 µM)
MIC (Staphylococcus aureus [5]): 0.5 µg/mL (≈ 0.313 µM)

C/C(=C/c1ccccc1)Cn1cc(CCCCCc2nc(N)[nH]c2-c2ccc(F)cc2)nn1
pIC50 (Staphylococcus aureus [2]): 5.87
fold change (FC) (Staphylococcus aureus [3]): 2

CN[C@H](CC(C)C)C(=O)N[C@@H]1Cc2ccc(c(Cl)c2)Oc2cc3cc(c2O[C@@H]2O[C@H](CO)[C@@H](O)[C@H](O)[C@H]2O[C@H]2C[C@](C)(N)[C@H](O)[C@H](C)O2)Oc2ccc(cc2Cl)[C@@H](O)[C@@H]2NC(=O)[C@H](NC(=O)[C@@H]3NC(=O)[C@H](CC(=O)O)NC1=O)c1ccc(O)c(c1)-c1c(O)cc(O)cc1[C@H](C(=O)NCCc1cn(CCNC(=O)[C@@H]3NC(=O)[C@H]4NC(=O)[C@H](NC(=O)[C@@H]5NC(=O)[C@H](CC(=O)O)NC(=O)[C@H](NC(=O)[C@@H](CC(C)C)NC)Cc6ccc(c(Cl)c6)Oc6cc5cc(c6O[C@@H]5O[C@H](CO)[C@@H](O)[C@H](O)[C@H]5O[C@H]5C[C@](C)(N)[C@H](O)[C@H](C)O5)Oc5ccc(cc5Cl)[C@H]4O)c4ccc(O)c(c4)-c4c(O)cc(O)cc43)nn1)NC2=O
MIC (Staphylococcus aureus [1]): 1.3 µg/mL (≈ 0.435 µM)

COc1ccc(-c2[nH]c(N)nc2CCCCCc2cn(C/C(C)=C\c3ccccc3)nn2)cc1
pIC50 (Staphylococcus aureus [2]): 5.87
fold change (FC) (Staphylococcus aureus [3]): 2

C/C(=C/c1ccccc1)Cn1cc(CCCCCc2nc(N)[nH]c2-c2cc(F)cc(F)c2)nn1
pIC50 (Staphylococcus aureus [2]): 5.87
fold change (FC) (Staphylococcus aureus [3]): 2

CC(=O)N[C@H]1[C@H](O[C@@H]2c3ccc(c(Cl)c3)Oc3cc4cc(c3O)Oc3ccc(cc3Cl)C[C@H]3NC(=O)[C@H](n5cc(COc6cccc7ccccc67)nn5)c5ccc(O)c(c5)Oc5cc(O)cc(c5)[C@H](NC3=O)C(=O)N[C@H]4C(=O)N[C@H]3C(=O)N[C@@H]2C(=O)N[C@@H](C(=O)O)c2cc(O)cc(O)c2-c2cc3ccc2O)O[C@H](CO)[C@@H](O)[C@@H]1O
MIC (Staphylococcus aureus [4]): 0.5 µg/mL (≈ 0.31 µM)
MIC (Staphylococcus aureus [5]): 0.5 µg/mL (≈ 0.31 µM)

CN[C@H](CC(C)C)C(=O)N[C@@H]1Cc2ccc(c(Cl)c2)Oc2cc3cc(c2O[C@@H]2O[C@H](CO)[C@@H](O)[C@H](O)[C@H]2O[C@H]2C[C@](C)(N)[C@H](O)[C@H](C)O2)Oc2ccc(cc2Cl)[C@@H](O)[C@@H]2NC(=O)[C@H](NC(=O)[C@@H]3NC(=O)[C@H](CC(=O)O)NC1=O)c1ccc(O)c(c1)-c1c(O)cc(O)cc1[C@H](C(=O)NCCCCCc1cn(CCNC(=O)[C@@H]3NC(=O)[C@H]4NC(=O)[C@H](NC(=O)[C@@H]5NC(=O)[C@H](CC(=O)O)NC(=O)[C@H](NC(=O)[C@@H](CC(C)C)NC)Cc6ccc(c(Cl)c6)Oc6cc5cc(c6O[C@@H]5O[C@H](CO)[C@@H](O)[C@H](O)[C@H]5O[C@H]5C[C@](C)(N)[C@H](O)[C@H](C)O5)Oc5ccc(cc5Cl)[C@H]4O)c4ccc(O)c(c4)-c4c(O)cc(O)cc43)nn1)NC2=O
MIC (Staphylococcus aureus [1]): 1.3 µg/mL (≈ 0.429 µM)
